Test: mn = molality of the nth substance listed, in mol/kg
Conditions: 101 kPa, Liquid; for speed of sound: Sing-around technique in a fixed-path interferometer; for mass density: Vibrating tube method

CCCC[N+](CCCC)(CCCC)CCCC.[Br-] [tetrabutylammonium bromide] + O
Conditions | mass density [kg/m3] | speed of sound [m/s]
293.15 K, m1 = 0.0015 | 998.245 | 1483.3
293.15 K, m1 = 0.0047 | 998.318 | 1484.1
293.15 K, m1 = 0.0061 | 998.352 | 1484.6
293.15 K, m1 = 0.013 | 998.509 | 1486.1
293.15 K, m1 = 0.0183 | 998.632 | 1487.7
293.15 K, m1 = 0.026 | 998.809 | 1489.5
293.15 K, m1 = 0.031 | 998.934 | 1490.9
293.15 K, m1 = 0.0492 | 999.359 | 1495.1
293.15 K, m1 = 0.0796 | 1000.08 | 1502.6
293.15 K, m1 = 0.0997 | 1000.55 | 1507.5
293.15 K, m1 = 0.1118 | 1000.85 | 1510.4
293.15 K, m1 = 0.1291 | 1001.26 | 1514.5
293.15 K, m1 = 0.1464 | 1001.68 | 1518.5
293.15 K, m1 = 0.1626 | 1002.06 | 1522.2
293.15 K, m1 = 0.1952 | 1002.85 | 1529.5
293.15 K, m1 = 0.2309 | 1003.71 | 1537.5
293.15 K, m1 = 0.2732 | 1004.73 | 1546.5
293.15 K, m1 = 0.3073 | 1005.55 | 1553.8
293.15 K, m1 = 0.3449 | 1006.43 | 1561.7
293.15 K, m1 = 0.5437 | 1011.1 | 1599.5
293.15 K, m1 = 0.7712 | 1016.12 | 1636
298.15 K, m1 = 0.0015 | 997.085 | 1497.3
298.15 K, m1 = 0.0047 | 997.156 | 1498.2
298.15 K, m1 = 0.0061 | 997.187 | 1498.6
298.15 K, m1 = 0.013 | 997.335 | 1500
298.15 K, m1 = 0.0183 | 997.458 | 1501.4
298.15 K, m1 = 0.026 | 997.626 | 1503.1
298.15 K, m1 = 0.031 | 997.744 | 1504.3
298.15 K, m1 = 0.0492 | 998.14 | 1508.4
298.15 K, m1 = 0.0796 | 998.844 | 1515.2
298.15 K, m1 = 0.0997 | 999.297 | 1519.7
298.15 K, m1 = 0.1118 | 999.574 | 1522.4
298.15 K, m1 = 0.1291 | 999.966 | 1526.2
298.15 K, m1 = 0.1464 | 1000.37 | 1529.9
298.15 K, m1 = 0.1626 | 1000.73 | 1533.3
298.15 K, m1 = 0.1952 | 1001.49 | 1540.1
298.15 K, m1 = 0.2309 | 1002.3 | 1547.3
298.15 K, m1 = 0.2732 | 1003.27 | 1555.7
298.15 K, m1 = 0.3073 | 1004.05 | 1562.3
298.15 K, m1 = 0.3449 | 1004.88 | 1569.5
298.15 K, m1 = 0.5437 | 1009.3 | 1603.7
298.15 K, m1 = 0.7712 | 1014.01 | 1636.3
303.15 K, m1 = 0.0015 | 995.686 | 1509.6
303.15 K, m1 = 0.0047 | 995.754 | 1510.3
303.15 K, m1 = 0.0061 | 995.785 | 1510.7
303.15 K, m1 = 0.013 | 995.926 | 1512.1
303.15 K, m1 = 0.0183 | 996.041 | 1513.3
303.15 K, m1 = 0.026 | 996.204 | 1514.9
303.15 K, m1 = 0.031 | 996.318 | 1516.1
303.15 K, m1 = 0.0492 | 996.704 | 1519.8
303.15 K, m1 = 0.0796 | 997.37 | 1526.2
303.15 K, m1 = 0.0997 | 997.802 | 1530.3
303.15 K, m1 = 0.1118 | 998.068 | 1532.8
303.15 K, m1 = 0.1291 | 998.443 | 1536.2
303.15 K, m1 = 0.1464 | 998.826 | 1539.7
303.15 K, m1 = 0.1626 | 999.177 | 1542.8
303.15 K, m1 = 0.1952 | 999.897 | 1548.9
303.15 K, m1 = 0.2309 | 1000.67 | 1555.6
303.15 K, m1 = 0.2732 | 1001.6 | 1563.3
303.15 K, m1 = 0.3073 | 1002.33 | 1569.3
303.15 K, m1 = 0.3449 | 1003.12 | 1575.8
303.15 K, m1 = 0.5437 | 1007.29 | 1606.7
303.15 K, m1 = 0.7712 | 1011.73 | 1635.7
308.15 K, m1 = 0.0015 | 994.069 | 1520.2
308.15 K, m1 = 0.0047 | 994.133 | 1520.9
308.15 K, m1 = 0.0061 | 994.141 | 1521.2
308.15 K, m1 = 0.013 | 994.299 | 1522.5
308.15 K, m1 = 0.0183 | 994.411 | 1523.7
308.15 K, m1 = 0.026 | 994.559 | 1525.1
308.15 K, m1 = 0.031 | 994.67 | 1526.1
308.15 K, m1 = 0.0492 | 995.05 | 1529.5
308.15 K, m1 = 0.0796 | 995.683 | 1535.4
308.15 K, m1 = 0.0997 | 996.092 | 1539.2
308.15 K, m1 = 0.1118 | 996.35 | 1541.5
308.15 K, m1 = 0.1291 | 996.709 | 1544.7
308.15 K, m1 = 0.1464 | 997.075 | 1547.8
308.15 K, m1 = 0.1626 | 997.408 | 1550.7
308.15 K, m1 = 0.1952 | 998.092 | 1556.3
308.15 K, m1 = 0.2309 | 998.837 | 1562.5
308.15 K, m1 = 0.2732 | 999.711 | 1569.5
308.15 K, m1 = 0.3073 | 1000.41 | 1574.9
308.15 K, m1 = 0.3449 | 1001.16 | 1580.8
308.15 K, m1 = 0.5437 | 1005.11 | 1608.6
308.15 K, m1 = 0.7712 | 1009.28 | 1634.4
313.15 K, m1 = 0.0015 | 992.252 | 1529.2
313.15 K, m1 = 0.0047 | 992.309 | 1529.9
313.15 K, m1 = 0.0061 | 992.322 | 1530.2
313.15 K, m1 = 0.013 | 992.471 | 1531.4
313.15 K, m1 = 0.0183 | 992.571 | 1532.4
313.15 K, m1 = 0.026 | 992.724 | 1533.8
313.15 K, m1 = 0.031 | 992.829 | 1534.7
313.15 K, m1 = 0.0492 | 993.186 | 1537.8
313.15 K, m1 = 0.0796 | 993.797 | 1543.2
313.15 K, m1 = 0.0997 | 994.191 | 1546.6
313.15 K, m1 = 0.1118 | 994.435 | 1548.8
313.15 K, m1 = 0.1291 | 994.777 | 1551.7
313.15 K, m1 = 0.1464 | 995.128 | 1554.6
313.15 K, m1 = 0.1626 | 995.446 | 1557.2
313.15 K, m1 = 0.1952 | 996.099 | 1562.3
313.15 K, m1 = 0.2309 | 996.807 | 1567.9
313.15 K, m1 = 0.2732 | 997.64 | 1574.3
313.15 K, m1 = 0.3073 | 998.309 | 1579.2
313.15 K, m1 = 0.3449 | 999.017 | 1584.5
313.15 K, m1 = 0.5437 | 1002.75 | 1609.5
313.15 K, m1 = 0.7712 | 1006.68 | 1632
318.15 K, m1 = 0.0015 | 990.25 | 1536.8
318.15 K, m1 = 0.0047 | 990.268 | 1537.4
318.15 K, m1 = 0.0061 | 990.285 | 1537.6
318.15 K, m1 = 0.013 | 990.457 | 1538.7
318.15 K, m1 = 0.0183 | 990.535 | 1539.7
318.15 K, m1 = 0.026 | 990.703 | 1540.9
318.15 K, m1 = 0.031 | 990.802 | 1541.8
318.15 K, m1 = 0.0492 | 991.142 | 1544.6
318.15 K, m1 = 0.0796 | 991.727 | 1549.6
318.15 K, m1 = 0.0997 | 992.105 | 1552.7
318.15 K, m1 = 0.1118 | 992.338 | 1554.6
318.15 K, m1 = 0.1291 | 992.665 | 1557.3
318.15 K, m1 = 0.1464 | 992.999 | 1559.9
318.15 K, m1 = 0.1626 | 993.303 | 1562.3
318.15 K, m1 = 0.1952 | 993.923 | 1567
318.15 K, m1 = 0.2309 | 994.602 | 1572
318.15 K, m1 = 0.2732 | 995.396 | 1577.8
318.15 K, m1 = 0.3073 | 996.027 | 1582.3
318.15 K, m1 = 0.3449 | 996.7 | 1587.1
318.15 K, m1 = 0.5437 | 1000.24 | 1609.2
318.15 K, m1 = 0.7712 | 1003.95 | 1629
